IC50 data for 20 compounds are collected here from US20090270350A1, “Pyridinone Pyrazole Urea and Pyrimidinone Pyrazole Urea Derivatives” (PFIZER INC., priority 2006, published 2009).

The experiment concerns the target p38α (Homo sapiens, UniProt Q16539). Briefly: p38α/MK2 cascade assay. The conditions noted are these: read-out: p38a/MK2 Cascade 40 min Pre-Incuabtion (% Inhibition): IC50. The experiment is classed as biochemical. As for the experimental part:
The ability of compounds to inhibit activated p38α was determined in a p38α/MK-2 cascade assay format. The kinase activity of p38α is determined by its ability to phosphorylate/activate nonactive MK2 (54-400). Activation of MK-2 by p38α is measured by following the phosphorylation of a MK-2 specific peptide, Hsp27 peptide (FITC-KKKALSRQLSVAA). The phosphorylation of the Hsp27 peptide was quantified using the Caliper LabChip 3000. The kinase reactions were carried out in 20 mM HEPES pH 7.5, 10 mM MgCl2, 0.0005% Tween-20, 0.01% BSA, 1 mM DTT, and 2% DMSO. The inhibitors were varied between 1000-0.05 nM, while the Hsp27 peptide substrate, MgATP, and nonactive MK-2 (54-400) were held constant at 0.5 µM, 5 µM, and 1 nM, respectively. Inhibitors were preincubated with p38α for 40 minutes prior to initiating the reaction with peptide, MgATP, and MK-2. The kinase reactions were quenched after 60 minutes by the addition of stop buffer (180 mM HEPES, 30 mM EDTA, and 0.2% Coating Reagent-3).
The above protocol assay was used to determine the IC50 values for some of the compounds in the above Examples.
IC50 values were determined for the compounds listed in Table 2, using the same p38α/MK2 cascade assay used to determine the IC50 values for the compounds in Table 1. The compounds of Table 2 were prepared using methods similar to those listed in the Examples for compounds of Table 1.

[1] abbreviates: Table 1, inhibitors preincubated with p38α for 40 minutes, phosphorylation of Hsp27 peptide by MK-2, Caliper LabChip 3000.
[2] abbreviates: Table 2, same p38α/MK2 cascade assay, 40 minutes preincubation.

Where two headings read alike, the source gives them in different places.

Sequence of p38α (Q16539 whole entry): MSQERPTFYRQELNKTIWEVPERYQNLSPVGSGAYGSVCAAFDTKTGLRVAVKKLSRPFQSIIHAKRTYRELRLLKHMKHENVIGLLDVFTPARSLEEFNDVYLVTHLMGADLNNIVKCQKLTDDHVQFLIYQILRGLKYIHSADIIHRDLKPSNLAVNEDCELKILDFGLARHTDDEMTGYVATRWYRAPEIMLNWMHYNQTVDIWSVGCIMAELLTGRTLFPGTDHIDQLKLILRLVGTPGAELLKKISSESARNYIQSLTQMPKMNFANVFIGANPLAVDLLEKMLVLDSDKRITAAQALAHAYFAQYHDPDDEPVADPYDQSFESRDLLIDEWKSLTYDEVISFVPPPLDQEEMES

Take `COc1cccc(Cn2c(C)cc(OCc3ccc(F)cc3CNC(=O)Nc3cc(C(C)(C)C)nn3-c3ccc(O[Si](C)(C)C(C)(C)C)c(Cl)c3)c(Cl)c2=O)c1` [Example 42, 1-[3-tert-butyl-1-(4-{[tert-butyl(dimethyl)silyl]oxy}-3-chlorophenyl)-1H-pyrazol-5-yl]-3-[2-({[3-chloro-1-(3-methoxybenzyl)-6-methyl-2-oxo-1,2-dihydropyridin-4-yl]oxy}methyl)-5-fluorobenzyl]urea]: the IC50 under setting [1] is 0.116 µM.

Regarding `COc1ccc(Cn2c(C)cc(OCc3ccccc3CNC(=O)Nc3cc(C(C)(C)C)nn3-c3ccccc3)c(C)c2=O)cc1` [Example 237, 1-(3-tert-butyl-1-phenyl-1H-pyrazol-5-yl)-3-[2-({[1-(4-methoxybenzyl)-3,6-dimethyl-2-oxo-1,2-dihydropyridin-4-yl]oxy}methyl)benzyl]urea], under setting [2], the IC50 is 0.0112 µM. In the case of `CSc1ccccc1Cn1c(C)cc(OCc2ccccc2CNC(=O)Nc2cc(C(C)(C)C)nn2-c2ccc(O)cc2)c(Cl)c1=O` [Example 268, 1-[3-tert-butyl-1-(4-hydroxyphenyl)-1H-pyrazol-5-yl]-3-{2-[({3-chloro-6-methyl-1-[2-(methylthio)benzyl]-2-oxo-1,2-dihydro-pyridin-4-yl}oxy)methyl]benzyl}urea], the IC50 under setting [2] was found to be 0.0236 µM. Consider `Cc1ccc(C(=O)NCCO)cc1-n1c(C)cc(OCc2ccc(F)cc2CNC(=O)Nc2cc(C(C)(C)C)nn2-c2cccc(Cl)c2)c(Cl)c1=O` [Example 195, 3-{4-[(2-{[({[3-tert-butyl-1-(3-chlorophenyl)-1H-pyrazol-5-yl]amino}carbonyl)amino]methyl}-4-fluorobenzyl)oxy]-3-chloro-6-methyl-2-oxopyridin-1(2H)-yl}-N-(2-hydroxyethyl)-4-methylbenzamide], for which the IC50 under setting [1] is 0.00393 µM. For the compound `COc1ccc(Cn2c(C)cc(OCc3ccccc3CNC(=O)Nc3cc(C(C)(C)C)nn3-c3ccc(O)cc3)c(C)c2=O)cc1Cl` [Example 267, 1-[3-tert-butyl-1-(4-hydroxyphenyl)-1H-pyrazol-5-yl]-3-[2-({[1-(3-chloro-4-methoxybenzyl)-3,6-dimethyl-2-oxo-1,2-dihydro-pyridin-4-yl]oxy}methyl)benzyl]urea], the IC50 under setting [2] came to 0.0162 µM. On the same count and under the same terms, as for `COc1ccccc1Cn1c(C)cc(OCc2ccccc2CNC(=O)Nc2cc(C(C)(C)C)nn2-c2ccc(O)c(Cl)c2)c(C)c1=O` [Example 264, 1-[3-tert-butyl-1-(3-chloro-4-hydroxyphenyl)-1H-pyrazol-5-yl]-3-[2-({[1-(2-methoxybenzyl)-3,6-dimethyl-2-oxo-1,2-dihydro-pyridin-4-yl]oxy}methyl)benzyl]urea], the figure is 0.0274 µM. For `COc1cccc(Cn2c(C)cc(OCc3ccc(F)cc3CNC(=O)Nc3cc(C(C)(C)C)nn3-c3cccc(OCCOC4CCCCO4)c3)c(Cl)c2=O)c1` (centres unmarked) [Example 41, 1-(3-tert-butyl-1-{3-[2-(tetrahydro-2H-pyran-2-yloxy)ethoxy]phenyl}-1H-pyrazol-5-yl)-3-[2-({[3-chloro-1-(3-methoxybenzyl)-6-methyl-2-oxo-1,2-dihydropyridin-4-yl]oxy}methyl)-5-fluorobenzyl]urea], the IC50 under setting [1] was determined as 0.0216 µM. In the case of `CSc1ccccc1Cn1c(C)cc(OCc2ccccc2CNC(=O)Nc2cc(C(C)(C)C)nn2-c2ccc(O)c(Cl)c2)c(Cl)c1=O` [Example 270, 1-[3-tert-butyl-1-(3-chloro-4-hydroxyphenyl)-1H-pyrazol-5-yl]-3-{2-[({3-chloro-6-methyl-1-[2-(methylthio)benzyl]-2-oxo-1,2-dihydropyridin-4-yl}oxy)methyl]benzyl}urea], the IC50 under setting [2] was 0.0327 µM.

With `COc1ccccc1Cn1c(C)cc(OCc2ccccc2CNC(=O)Nc2cc(C(C)(C)C)nn2-c2ccc(O)cc2)c(C)c1=O` [Example 263, 1-[3-tert-butyl-1-(4-hydroxyphenyl)-1H-pyrazol-5-yl]-3-[2-({[1-(2-methoxybenzyl)-3,6-dimethyl-2-oxo-1,2-dihydropyridin-4-yl]oxy}methyl)benzyl]urea], the IC50 under setting [2] was 0.0231 µM.

On to `COc1ccc(Cn2c(C)cc(OCc3ccccc3CNC(=O)Nc3cc(C(C)(C)C)nn3-c3ccc(F)cc3F)c(C)c2=O)c(OC)c1` [Example 244, 1-[3-tert-butyl-1-(2,4-difluorophenyl)-1H-pyrazol-5-yl]-3-[2-({[1-(2,4-dimethoxybenzyl)-3,6-dimethyl-2-oxo-1,2-dihydropyridin-4-yl]oxy}methyl)benzyl]urea], for which, under setting [2], the IC50 amounted to 0.0137 µM. Still for that read-out and setting: in the case of `COC(=O)c1ccc(C)c(-n2c(C)cc(OCc3ccc(F)cc3CNC(=O)Nc3cc(C(C)(C)C)nn3-c3ccc(O)cc3)c(Cl)c2=O)c1` [Example 232, methyl 3-{4-[(2-{[({[3-tert-butyl-1-(4-hydroxyphenyl)-1H-pyrazol-5-yl]amino}carbonyl)amino]methyl}-4-fluorobenzyl)-oxy]-3-chloro-6-methyl-2-oxopyridin-1(2H)-yl}-4-methylbenzoate] it was 0.0044 µM; in that of `COc1cc(Cn2c(C)cc(OCc3ccccc3CNC(=O)Nc3cc(C(C)(C)C)nn3-c3cccc(OCCO)c3)c(Cl)c2=O)ccc1Cl` [Example 255, 1-{3-tert-butyl-1-[3-(2-hydroxyethoxy)phenyl]-1H-pyrazol-5-yl}-3-[2-({[3-chloro-1-(4-chloro-3-methoxybenzyl)-6-methyl-2-oxo-1,2-dihydropyridin-4-yl]oxy}methyl)benzyl]urea], 0.0072 µM; in that of `CNC(=O)c1ccc(C)c(-n2c(C)cc(OCc3ccccc3CNC(=O)Nc3cc(C(C)(C)C)nn3-c3ccc(O)c(Cl)c3)c(Cl)c2=O)c1` [Example 223, 3-{4-[(2-{[({[3-tert-butyl-1-(3-chloro-4-hydroxyphenyl)-1H-pyrazol-5-yl]amino}carbonyl)amino]methyl}benzyl)oxy]-3-chloro-6-methyl-2-oxopyridin-1(2H)-yl}-N,4-dimethylbenzamide], 0.0046 µM. Turning to `Cc1ccc(C(=O)NCC(N)=O)cc1-n1c(C)cc(OCc2ccccc2CNC(=O)Nc2cc(C(C)(C)C)nn2-c2ccc(O)cc2)c(Cl)c1=O` [Example 219, N-(2-amino-2-oxoethyl)-3-{4-[(2-{[({[3-tert-butyl-1-(4-hydroxyphenyl)-1H-pyrazol-5-yl]amino}carbonyl)amino]-methyl}benzyl)oxy]-3-chloro-6-methyl-2-oxopyridin-1(2H)-yl}-4-methylbenzamide], under setting [2], the IC50 was 0.0009 µM. On the same count and under the same terms, as for `COc1ccc(Cn2c(C)cc(OCc3ccccc3CNC(=O)Nc3cc(C(C)(C)C)nn3-c3ccccc3)c(C)c2=O)c(OC)c1` [Example 243, 1-(3-tert-butyl-1-phenyl-1H-pyrazol-5-yl)-3-[2-({[1-(2,4-dimethoxybenzyl)-3,6-dimethyl-2-oxo-1,2-dihydropyridin-4-yl]oxy}methyl)benzyl]urea], the figure is 0.00954 µM. Same read-out and setting: as for `COc1ccccc1Cn1c(C)cc(OCc2ccccc2CNC(=O)Nc2cc(C(C)(C)C)nn2-c2ccc(Cl)c(O)c2)c(Cl)c1=O` [Example 262, 1-[3-tert-butyl-1-(4-chloro-3-hydroxyphenyl)-1H-pyrazol-5-yl]-3-[2-({[3-chloro-1-(2-methoxybenzyl)-6-methyl-2-oxo-1,2-dihydro-pyridin-4-yl]oxy}methyl)benzyl]urea], the figure is 0.0843 µM. Regarding `CCc1c(OCc2ccccc2CNC(=O)Nc2cc(C(C)(C)C)nn2-c2cccc(F)c2)ncn(Cc2ccc(OC)cc2)c1=O` [Example 116, 1-[3-tert-butyl-1-(3-fluorophenyl)-1H-pyrazol-5-yl]-3-[2-({[5-ethyl-1-(4-methoxybenzyl)-6-oxo-1,6-dihydropyrimidin-4-yl]oxy}methyl)benzyl]urea], the IC50 under setting [1] is 0.0101 µM. Same read-out and setting: as for `COc1ccc(Cn2c(C)cc(OCc3ccc(F)cc3CNC(=O)Nc3cc(C(C)(C)C)nn3-c3ccc(O)c(Cl)c3)c(Cl)c2=O)cc1` [Example 62, 1-[3-tert-butyl-1-(3-chloro-4-hydroxyphenyl)-1H-pyrazol-5-yl]-3-[2-({[3-chloro-1-(4-methoxybenzyl)-6-methyl-2-oxo-1,2-dihydropyridin-4-yl]oxy}methyl)-5-fluorobenzyl]urea], the figure is 0.0045 µM. Consider `CSc1ccccc1Cn1c(C)cc(OCc2ccccc2CNC(=O)Nc2cc(C(C)(C)C)nn2-c2ccc(Cl)c(O)c2)c(Cl)c1=O` [Example 273, 1-[3-tert-butyl-1-(4-chloro-3-hydroxyphenyl)-1H-pyrazol-5-yl]-3-{2-[({3-chloro-6-methyl-1-[2-(methylthio)benzyl]-2-oxo-1,2-dihydropyridin-4-yl}oxy)methyl]benzyl}urea], for which the IC50 under setting [2] came to 0.121 µM. On the same count and under the same terms, in the case of `CSc1ccccc1Cn1c(C)cc(OCc2ccccc2CNC(=O)Nc2cc(C(C)(C)C)nn2-c2cccc(O)c2)c(C)c1=O` [Example 278, 1-[3-tert-butyl-1-(3-hydroxyphenyl)-1H-pyrazol-5-yl]-3-{2-[({3,6-dimethyl-1-[2-(methylthio)benzyl]-2-oxo-1,2-dihydropyridin-4-yl}oxy)methyl]benzyl}urea] it was 0.0132 µM.
